A word on the EC50: it is the concentration needed to bring the measured effect to its halfway point.

Assay [1] concerns the target DYRK1A kinase (Homo sapiens, UniProt Q13627). Briefly: DYRK1A kinase activity (Ser/Thr 18 peptide Z-lyte FRET assay).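 Note: kinase activity read as coumarin/fluorescein emission ratio after development step, with unphosphorylated and phosphorylated peptide forms setting 0% and 100% controls, values from dose-response curves.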 The conditions noted are these: recombinant DYRK1A, 30 μM ATP, one hour at room temperature. The assay is classed as biochemical.
For assay [2], the target named is GSK3β kinase (Homo sapiens, UniProt P49841). Kind of assay: GSK3β kinase activity (Ser/Thr 09 peptide Z-lyte FRET assay). Type of assay: biochemical. The conditions noted are these: recombinant kinase, 46 μM ATP, one hour at room temperature; read-out: EC50.
For assay [3], the system named is secreted cytokines TNFα, IL-6 and KC-GRO. Briefly: Secreted cytokines in Lipopolysaccharide-stimulated BV-2 cells (Table 9 does not say which cytokine). The assay is classed as cell-based, mouse. The conditions noted are these: Mus musculus, BV-2, 5 h; read-out: EC50.
Assay [4] deals with SW480 colon carcinoma cells. Briefly: Cell viability assay (CellTiter-Glo). The conditions noted are these: Homo sapiens; for EC50: SW480, 96 h; for inhibition at 10 µM: SW480, read-out: percent inhibition at 10 μM. (ATP-based viability assays read luminescence as a measure of living cells.)
Method: Representative compounds were screened using the assay procedure to assess the effect on cell viability as described below.
SW480 colon carcinoma cells were transduced with a lentiviral vector expressing luciferase with a human Sp5 promoter consisting of a sequence of eight TCF/LEF binding sites. […] These stably transduced SW480 cells were expanded in cell culture and used for all further screening activities. Each compound was dissolved in DMSO as a 10 mM stock and used to prepare compound source plates.
For the Cell Viability Assays, the cells were plated at 2,000 cells/well in 384-well plates with a DMEM medium containing 1% fetal bovine serum, and 1% Penicillin-Streptomycin and incubated for four days hours at 37° C. and 5% CO2. Eight replicates of DMSO-treated cells served as controls and cells treated with compound were performed in duplicate.
After incubation, 10 μL of CellTiter-Glo (Promega) was added to each well allowed to incubate for approximately 12 minutes. This reagent “results in cell lysis and generation of a luminescent signal proportional to the amount of ATP present. The amount of ATP is directly proportional to the number of cells present in culture, in agreement with previous reports. The CellTiter-Glo Assay generates a “glow-type” luminescent signal, produced by the luciferase reaction (Promega.com)”.
Dose-response curves were generated and EC50 concentration values were calculated using non-linear regression curve fit in the GraphPad Prism (San Diego, Calif.) or Dotmatics' Studies Software (Bishops Stortford, UK).
Assay [5] has as its system Wnt-responsive Sp5-Luc reporter in SW480 colon carcinoma cells. Briefly: Screening assay for Wnt activity (Sp5-Luc reporter gene assay). To be noted: Homo sapiens; for EC50: SW480; for inhibition at 10 µM: SW480, read-out: percent inhibition at 10 μM. Background: A reporter such as luciferase makes a cellular process visible.
Assay [6] has as its system IL-6. Kind of assay: IL-6 inhibition in LPS-stimulated human peripheral blood mononuclear cells (HTRF). The conditions noted are these: Homo sapiens, PBMC; for EC50: 22 h; for inhibition at 10 µM: read-out: percentage in parentheses after EC50 >10.
The subject of assay [7] is α-smooth muscle actin (aSMA) positive LL29 cells. Kind of assay: Inhibition of the fibrotic process: αSMA staining in TGF-β1 treated LL29 fibroblasts from IPF patients. To be noted: Homo sapiens, Fibroblast; for EC50: 96 h; for inhibition at 10 µM: read-out: percentage in parentheses after EC50 >10.

Sequence of GSK3β kinase (P49841 whole entry): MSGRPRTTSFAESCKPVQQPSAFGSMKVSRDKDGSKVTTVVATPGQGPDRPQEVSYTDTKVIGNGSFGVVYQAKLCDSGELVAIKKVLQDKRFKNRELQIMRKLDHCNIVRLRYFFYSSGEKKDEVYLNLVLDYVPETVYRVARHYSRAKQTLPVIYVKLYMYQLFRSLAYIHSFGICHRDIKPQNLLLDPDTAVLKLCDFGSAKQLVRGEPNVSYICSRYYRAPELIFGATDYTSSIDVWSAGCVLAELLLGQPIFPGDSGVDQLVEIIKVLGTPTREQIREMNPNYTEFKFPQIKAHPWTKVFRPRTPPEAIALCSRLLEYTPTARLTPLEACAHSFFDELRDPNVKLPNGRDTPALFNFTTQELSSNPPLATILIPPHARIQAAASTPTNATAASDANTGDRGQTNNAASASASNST

`Cn1cncc1-c1cc2cc(NC(=O)c3ccc(F)cc3)ncc2cn1` [Compound 4075, 4-Fluoro-N-(6-(1-methyl-1H-imidazol-5-yl)-2,7-naphthyridin-3-yl) benzamide]: the EC50 is 0.008 µM in assay [1]; 0.966 µM in assay [2]; at least 10 µM in assay [3]; above 10 µM in assay [4]; 5.6 µM in assay [5]; above 10 µM in assay [6]. This compound also came in with an EC50 in assay [7] above 10 µM. Moreover, the inhibition at 10 µM was 35.4% in assay [4], 8.1% in assay [6] and 39.2% in assay [7].
For the compound `Cn1cncc1-c1cc2cc(NC(=O)c3cccc(CN4CCCC4)c3)ncc2cn1` [Compound 4077, N-(6-(1-Methyl-1H-imidazol-5-yl)-2,7-naphthyridin-3-yl)-3-(pyrrolidin-1-ylmethyl)benzamide], the EC50 in assay [1] was 0.007 µM; in assay [2], 2.28 µM; in assay [3], 2.4 µM; in assay [4], 2.79 µM; in assay [5], 0.2 µM; in assay [6], above 10 µM. In assay [7], the EC50 is 1.02 µM. Further, in assay [6], the inhibition at 10 µM stood at 3.6%.
In the case of `CN1CCC(Oc2cccc(C(=O)Nc3cc4cc(-c5cnco5)ncc4cn3)c2)CC1` [Compound 4218, 3-((1-Methylpiperidin-4-yl)oxy)-N-(6-(oxazol-5-yl)-2,7-naphthyridin-3-yl) benzamide], the EC50 was 0.014 µM in assay [1]; 7.4 µM in assay [2]; 5.1 µM in assay [3]; 5.96 µM in assay [4]; above 10 µM in assay [5]; above 10 µM in assay [6]. Further, the EC50 in assay [7] is 2.98 µM. For the same compound, the results for the inhibition at 10 µM in assay [5] and in assay [6] were 24.9% and 3.7%, respectively.
On to `CN1CCN(c2cc(C(=O)Nc3cc4cc(-c5cncs5)ncc4cn3)ccn2)CC1` [Compound 4257, 2-(4-Methylpiperazin-1-yl)-N-(6-(thiazol-5-yl)-2,7-naphthyridin-3-yl) isonicotinamide], for which the EC50 in assay [1] was 0.006 µM; in assay [2], 1.62 µM; in assay [3] it was 0.626 µM; in assay [4], 2.46 µM; in assay [5], 4.06 µM; in assay [6], above 10 µM. In assay [7], this compound had an EC50 of 2.52 µM. Also, the inhibition at 10 µM in assay [6] is 5.3%.
Take `CO[C@H]1CC[C@H](C(=O)Nc2cc3cc(-c4nnc(C)s4)ncc3cn2)CC1` [Compound 4332, trans-4-Methoxy-N-(6-(5-methyl-1,3,4-thiadiazol-2-yl)-2,7-naphthyridin-3-yl)cyclohexane-1-carboxamide]: the EC50 is 0.048 µM in assay [1]; 0.828 µM in assay [2]; above 10 µM in assay [3]; above 10 µM in assay [4]; above 10 µM in assay [5]; above 10 µM in assay [6]. Also, in assay [7], the EC50 is above 10 µM. In addition, the inhibition at 10 µM stood at 16.5% in assay [4], 9.6% in assay [5], 0% in assay [6] and 23.6% in assay [7].
As to `Nc1cncc(-c2cc3cc(NC(=O)c4ccc(OC5CCNCC5)cc4)ncc3cn2)c1` [Compound 4431, N-(6-(5-Aminopyridin-3-yl)-2,7-naphthyridin-3-yl)-4-(piperidin-4-yloxy) benzamide], the EC50 in assay [1] was 0.003 µM; in assay [2], 3.78 µM; in assay [3] it was 0.04 µM; in assay [4] it was 3.15 µM; in assay [5], 2.82 µM; in assay [6] it was above 10 µM. In assay [7], a half-maximal effect (EC50) was put at 2.49 µM. The inhibition at 10 µM in assay [6] turned out to be 3.6%.
On to `CN1CCN(c2cc(C(=O)Nc3cc4cc(-c5ccc(N)nc5)ncc4cn3)ccn2)CC1` [Compound 4434, N-(6-(6-Aminopyridin-3-yl)-2,7-naphthyridin-3-yl)-2-(4-methylpiperazin-1-yl)isonicotinamide], for which the EC50 was 0.012 µM in assay [1]; above 10 µM in assay [2]; 9.5 µM in assay [3]; 5.15 µM in assay [4]; 8.48 µM in assay [5]; 9.85 µM in assay [6]. This compound also showed an EC50 in assay [7] of 1.6 µM.
Take `CN1CCC(n2cc(C(=O)Nc3cc4cc(-c5cncc6[nH]ccc56)ncc4cn3)cn2)CC1` [Compound 4523, N-(6-(1H-Pyrrolo[2,3-c]pyridin-4-yl)-2,7-naphthyridin-3-yl)-1-(1-methylpiperidin-4-yl)-1H-pyrazole-4-carboxamide]: the EC50 is 0.01 µM in assay [1]; above 10 µM in assay [2]; 1.3 µM in assay [3]; 0.513 µM in assay [4]; 0.718 µM in assay [5]; 3.26 µM in assay [6]. The EC50 in assay [7] is 2.38 µM.
Regarding `CN1CCC(Nc2cc(C(=O)Nc3cc4nc(-c5cnn(C)c5)ccc4cn3)ccn2)CC1` [Compound 4538, N-(2-(1-Methyl-1H-pyrazol-4-yl)-1,6-naphthyridin-7-yl)-2-((1-methylpiperidin-4-yl)amino)isonicotinamide], the EC50 is 0.003 µM in assay [1]; above 10 µM in assay [2]; 0.047 µM in assay [3]; 0.952 µM in assay [4]; 0.278 µM in assay [5]; 3.43 µM in assay [6]. The compound further returned an EC50 in assay [7] of 0.708 µM.
With `CN1CCN(c2ncc(C(=O)Nc3cc4nc(-c5cnn(C)c5)ccc4cn3)s2)CC1` [Compound 4539, N-(2-(1-Methyl-1H-pyrazol-4-yl)-1,6-naphthyridin-7-yl)-2-(4-methylpiperazin-1-yl)thiazole-5-carboxamide], the EC50 in assay [1] was 0.002 µM; in assay [2] it was 2.23 µM; in assay [3] it was 0.08 µM; in assay [4], 0.782 µM; in assay [5], 0.301 µM; in assay [6], above 10 µM. The compound also had an EC50 in assay [7] of 1.1 µM. In assay [6], the inhibition at 10 µM was found to be 37.4%.
`O=C(Nc1cc2nc(-c3cnco3)ccc2cn1)[C@H]1CC[C@H](CO)CC1` [Compound 4548, trans-4-(Hydroxymethyl)-N-(2-(oxazol-5-yl)-1,6-naphthyridin-7-yl) cyclohexane-1-carboxamide]: the EC50 in assay [1] is 0.019 µM; in assay [2], 0.785 µM; in assay [3] it was 0.4 µM; in assay [4] it was above 10 µM; in assay [5], above 10 µM; in assay [6], above 10 µM. In assay [7], this compound gave an EC50 above 10 µM. Also, the figures for the inhibition at 10 µM in assay [4], in assay [6] and in assay [7] were 29.8%, 3.2% and 50%, respectively.
`O=C(Nc1cc2nc(-c3cnco3)ccc2cn1)c1ccc(OC2CCNCC2)cc1` [Compound 4551, N-(2-(Oxazol-5-yl)-1,6-naphthyridin-7-yl)-4-(piperidin-4-yloxy)benzamide]: the EC50 amounted to 0.005 µM in assay [1]; 4.24 µM in assay [2]; 0.4 µM in assay [3]; 1.04 µM in assay [4]; 1.02 µM in assay [5]; 2.99 µM in assay [6]. The compound also had an EC50 in assay [7] of 0.325 µM.
Turning to `CN1CCN(c2ncc(C(=O)Nc3ncc4ccc(-c5cnn(C)c5)cc4n3)s2)CC1` [Compound 4570, N-(7-(1-Methyl-1H-pyrazol-4-yl)quinazolin-2-yl)-2-(4-methylpiperazin-1-yl) thiazole-5-carboxamide], the EC50 in assay [1] was 0.003 µM; in assay [2], 2.19 µM; in assay [3], 0.128 µM; in assay [4] it was 5.62 µM; in assay [5] it was 3.26 µM; in assay [6], above 10 µM. This compound also gave an EC50 in assay [7] above 10 µM. The results for the inhibition at 10 µM in assay [6] and in assay [7] were 18.4% and 5.5%, respectively.
As for `Cc1nnc(-c2ccc3cnc(NC(=O)CN4C[C@@H]5C[C@H]4CO5)nc3c2)s1` [Compound 4593, 2-((1S,4S)-2-Oxa-5-azabicyclo[2.2.1]heptan-5-yl)-N-(7-(5-methyl-1,3,4-thiadiazol-2-yl)quinazolin-2-yl)acetamide], the EC50 in assay [1] is 0.131 µM; in assay [2] it was 0.034 µM; in assay [3], 2.5 µM; in assay [4], above 10 µM; in assay [5], above 10 µM; in assay [6], above 10 µM. In addition, the EC50 in assay [7] is above 10 µM. Moreover, the inhibition at 10 µM in assay [4] was determined as 27.4%; in assay [5] it was 32.8%; in assay [6], 4.8%; in assay [7], 41.4%.
In the case of `Cc1cn2c(n1)CN(C(=O)Nc1cc3cc(-c4cnco4)cnc3cn1)CC2` [Compound 4615], the EC50 is 0.027 µM in assay [1]; 7.82 µM in assay [2]; 0.275 µM in assay [3]; 2.67 µM in assay [4]; 3.83 µM in assay [5]; above 10 µM in assay [6]. The compound also showed an EC50 in assay [7] above 10 µM. For the same compound, the inhibition at 10 µM turned out to be 5.8% in assay [6] and 35.6% in assay [7].
As for `Cc1ncc(-c2cnc3cnc(NC(=O)C4CCN(C5COC5)CC4)cc3c2)s1` [Compound 4622, N-(3-(2-methylthiazol-5-yl)-1,7-naphthyridin-6-yl)-1-(oxetan-3-yl)piperidine-4-carboxamide], the EC50 was 0.04 µM in assay [1]; 4.63 µM in assay [2]; 1.4 µM in assay [3]; above 10 µM in assay [4]; above 10 µM in assay [5]; above 10 µM in assay [6]. In addition, in assay [7], the EC50 is above 10 µM. The inhibition at 10 µM amounted to 27.9% in assay [4], 50% in assay [5], 2.3% in assay [6] and 29.4% in assay [7].

These data come from patent publication US10703748B2, “Diazanaphthalen-3-yl carboxamides and preparation and use thereof” (Samumed, LLC, priority 2017, dated 2020).
